Laboratory results as given in US8226943B2, “Antibodies to notch receptors” (OncoMed Pharmaceuticals, Inc., priority 2008, dated 2012).

Assays:
[1] = tested on: breast tumor xenograft line UM-T1; experiment: UM-T1 breast tumor xenograft growth; assay type: in vivo, NOD/SCID mice
Experimental: (§1) The 59R1 IgG2 antibody was also tested in vivo in the breast tumor xenograft lines OMP-B34, OMP-B39, OMP-B44, PE13, and UM-T1, the pancreas tumor xenograft line OMP-PN8, and the colon tumor xenograft line OMP-C8. These tumor xenograft lines were established by adhering to procedures described in Al-Hajj et al., 2003, Proc. Natl. Acad. Sci. USA, 100:3983-3988. Female NOD/SCID immuno-compromised mice 7-10 weeks old were used for the establishment of the breast tumor xenografts and male NOD/SCID mice were used for the OMP-Pn8 and OMP-C8 tumor-models (Harlan, Indianapolis, Ind.). The 59R1 IgG2 antibody was also tested in vivo in a Colo-205 colon tumor xenograft model. Female immunodeficient bg/nu XID mice on a Swiss CD-1 background were used for the Colo-205 xenograft tumor model. In case of the breast cancer models, slow-releasing estrogen pellets (0.36 mg) had to be implanted. Mice were subcutaneously injected on the right flank with 50,000 (OMP-B34, OMP-B39, OMP-B44, PE13, and UM-T1) or 1×10^7 (Colo-205) viable cells, respectively, in a mixture of PBS (without magnesium or calcium) and Matrigel at a 1:1 ratio. […] Antibodies were administered weekly and tumors measured twice weekly. […] Tumor volume was calculated as described Al-Hajj et al. (2003). Data are expressed as the mean and the mean±S.E.M. Group means were compared using Student's two-tailed, unpaired t-test. […]

stroma of B44 tumors = experiment: Microarray gene expression in stroma of treated xenograft tumors, B44; assay type: in vivo, mice; conditions: 59R1 vs control
Experimental: Gene expression levels in various xenograft tumor models treated with the 59R1 IgG2 antibody were analyzed by microarray analysis. […] […] Scanned array background adjustment and signal intensity normalization were performed with GCRMA algorithm in the open-source bioconductor software (www.bioconductor.org). The expression level of each gene was normalized by z-score transformation across the samples in the control (CTRL) and treatment (59R1) groups.

M4 melanoma tumor cells = experiment: M4 melanoma xenograft growth; assay type: in vivo, NOD-SCID mice; conditions: 10 mg/kg twice per week
Experimental: M4 melanoma tumor cells (10,000 cells per mouse) were injected subcutaneously into the flank region of NOD-SCID mice. Tumors were allowed to grow for 25 days until they had reached an average volume of ˜80 mm^3. Animals were randomized into treatment groups (n=10/group) and treatments were initiated. One group received a control antibody (1B711) at 10 mg/kg twice per week and one group received 59R1 at 10 mg/kg twice per week. Tumor volumes were measured on the indicated days.

[2] = target: T1, human Notch2 EGF deletion and point mutants (Homo sapiens, UniProt Q04721, DEL375-412); experiment: FACS epitope mapping with full-length hNotch2 deletion and point mutants; assay type: binding; conditions: HEK-293 transiently transfected
T1 construct: several point mutants were created within full-length Notch2; expressed in transfected cells; host or cells: HEK-293, transient, co-transfected with GFP
Experimental: (§2) Point mutations were made within EGF10 of Notch2 fusion proteins and binding of 59R1 to each EGF10 mutant was determined by FACS analysis. HEK-293 cells were transiently transfected with the indicated Notch expression plasmid and GFP as a transfection control. GFP positive cells indicated expression of the transgene. The 59R1 Fab antibody was added to the cells at 10 μg/ml and detected by PE-conjugated goat anti-human (Jackson Immunochemicals).
(§3) FACS analysis of HEK-293 cells transiently transfected with the indicated Notch expression plasmid and GFP as a transfection control. GFP positive cells indicate expression of the transgene. Anti-Notch2 (59M70) was added at 20 μg/ml and detected by PE-conjugated goat anti-mouse (Caltag, #3004-4). 59R1 (IgG2) was added to the cells at 2 μg/ml and detected by PE-conjugated goat anti-human Fc gamma specific (Jackson Immunochemicals). Ligand binding was determined by incubation of the cells with human DLL4 extracellular domain (ECD) fused to rabbit IgG constant region at 5 μg/ml and detected by PE-conjugated donkey anti-rabbit.
(§4) A comparison analysis of the EGF 10 regions of human Notch1, Notch2, and Notch4 and the EGF 9 region of human Notch3 (the equivalent of EGF 10 in the other Notch receptors) was performed to determine likely binding sites for 59R1 (FIG. 14A). […] Binding to the mutants was determined by FACS analysis (FIGS. 14B and 14C). […]

[3] = target: T2, human Notch2 EGF deletion and point mutants (Homo sapiens, UniProt Q04721, A388S/H385N/L389N); experiment: as above; assay type: binding; conditions: FACS on point mutants
T2 construct: several point mutants were created within full-length Notch2; expressed in transfected cells; host or cells: HEK-293, transient, co-transfected with GFP
Experimental: as §2, §3, §4

[4] = tested on: breast tumor xenograft line OMP-B44; experiment: OMP-B44 breast tumor xenograft growth; assay type: in vivo, NOD/SCID mice; conditions: established tumors, 15 mg/kg once a week
Experimental: as §1

human Notch3 = human Notch3 (Homo sapiens, UniProt Q9UM47); experiment: DLL4-Fc induced receptor activation in transfected PC3 cells, human Notch3; assay type: cell-based; design: expressed in transfected cells; host or cells: PC3 tumor cells, transient; conditions: immobilized DLL4-Fc
Experimental: 59R5 was determined to have similar activity in blocking Notch2 and Notch3 signaling as 59R1. Receptor activation was determined in luciferase-based assays. PC3 tumor cells were transiently transfected with a human or mouse Notch receptor (human Notch2, murine Notch2, human Notch3, or murine Notch3) and […] inducible reporter construct. Transfected cells were incubated with different concentrations of 59R1 or 59R5 antibody in the presence of passively immobilized DLL4-Fc protein. Notch receptor activation was determined by measuring luciferase activity.

T2 sequence (Q04721 26-2471 H385N/A388S/L389N): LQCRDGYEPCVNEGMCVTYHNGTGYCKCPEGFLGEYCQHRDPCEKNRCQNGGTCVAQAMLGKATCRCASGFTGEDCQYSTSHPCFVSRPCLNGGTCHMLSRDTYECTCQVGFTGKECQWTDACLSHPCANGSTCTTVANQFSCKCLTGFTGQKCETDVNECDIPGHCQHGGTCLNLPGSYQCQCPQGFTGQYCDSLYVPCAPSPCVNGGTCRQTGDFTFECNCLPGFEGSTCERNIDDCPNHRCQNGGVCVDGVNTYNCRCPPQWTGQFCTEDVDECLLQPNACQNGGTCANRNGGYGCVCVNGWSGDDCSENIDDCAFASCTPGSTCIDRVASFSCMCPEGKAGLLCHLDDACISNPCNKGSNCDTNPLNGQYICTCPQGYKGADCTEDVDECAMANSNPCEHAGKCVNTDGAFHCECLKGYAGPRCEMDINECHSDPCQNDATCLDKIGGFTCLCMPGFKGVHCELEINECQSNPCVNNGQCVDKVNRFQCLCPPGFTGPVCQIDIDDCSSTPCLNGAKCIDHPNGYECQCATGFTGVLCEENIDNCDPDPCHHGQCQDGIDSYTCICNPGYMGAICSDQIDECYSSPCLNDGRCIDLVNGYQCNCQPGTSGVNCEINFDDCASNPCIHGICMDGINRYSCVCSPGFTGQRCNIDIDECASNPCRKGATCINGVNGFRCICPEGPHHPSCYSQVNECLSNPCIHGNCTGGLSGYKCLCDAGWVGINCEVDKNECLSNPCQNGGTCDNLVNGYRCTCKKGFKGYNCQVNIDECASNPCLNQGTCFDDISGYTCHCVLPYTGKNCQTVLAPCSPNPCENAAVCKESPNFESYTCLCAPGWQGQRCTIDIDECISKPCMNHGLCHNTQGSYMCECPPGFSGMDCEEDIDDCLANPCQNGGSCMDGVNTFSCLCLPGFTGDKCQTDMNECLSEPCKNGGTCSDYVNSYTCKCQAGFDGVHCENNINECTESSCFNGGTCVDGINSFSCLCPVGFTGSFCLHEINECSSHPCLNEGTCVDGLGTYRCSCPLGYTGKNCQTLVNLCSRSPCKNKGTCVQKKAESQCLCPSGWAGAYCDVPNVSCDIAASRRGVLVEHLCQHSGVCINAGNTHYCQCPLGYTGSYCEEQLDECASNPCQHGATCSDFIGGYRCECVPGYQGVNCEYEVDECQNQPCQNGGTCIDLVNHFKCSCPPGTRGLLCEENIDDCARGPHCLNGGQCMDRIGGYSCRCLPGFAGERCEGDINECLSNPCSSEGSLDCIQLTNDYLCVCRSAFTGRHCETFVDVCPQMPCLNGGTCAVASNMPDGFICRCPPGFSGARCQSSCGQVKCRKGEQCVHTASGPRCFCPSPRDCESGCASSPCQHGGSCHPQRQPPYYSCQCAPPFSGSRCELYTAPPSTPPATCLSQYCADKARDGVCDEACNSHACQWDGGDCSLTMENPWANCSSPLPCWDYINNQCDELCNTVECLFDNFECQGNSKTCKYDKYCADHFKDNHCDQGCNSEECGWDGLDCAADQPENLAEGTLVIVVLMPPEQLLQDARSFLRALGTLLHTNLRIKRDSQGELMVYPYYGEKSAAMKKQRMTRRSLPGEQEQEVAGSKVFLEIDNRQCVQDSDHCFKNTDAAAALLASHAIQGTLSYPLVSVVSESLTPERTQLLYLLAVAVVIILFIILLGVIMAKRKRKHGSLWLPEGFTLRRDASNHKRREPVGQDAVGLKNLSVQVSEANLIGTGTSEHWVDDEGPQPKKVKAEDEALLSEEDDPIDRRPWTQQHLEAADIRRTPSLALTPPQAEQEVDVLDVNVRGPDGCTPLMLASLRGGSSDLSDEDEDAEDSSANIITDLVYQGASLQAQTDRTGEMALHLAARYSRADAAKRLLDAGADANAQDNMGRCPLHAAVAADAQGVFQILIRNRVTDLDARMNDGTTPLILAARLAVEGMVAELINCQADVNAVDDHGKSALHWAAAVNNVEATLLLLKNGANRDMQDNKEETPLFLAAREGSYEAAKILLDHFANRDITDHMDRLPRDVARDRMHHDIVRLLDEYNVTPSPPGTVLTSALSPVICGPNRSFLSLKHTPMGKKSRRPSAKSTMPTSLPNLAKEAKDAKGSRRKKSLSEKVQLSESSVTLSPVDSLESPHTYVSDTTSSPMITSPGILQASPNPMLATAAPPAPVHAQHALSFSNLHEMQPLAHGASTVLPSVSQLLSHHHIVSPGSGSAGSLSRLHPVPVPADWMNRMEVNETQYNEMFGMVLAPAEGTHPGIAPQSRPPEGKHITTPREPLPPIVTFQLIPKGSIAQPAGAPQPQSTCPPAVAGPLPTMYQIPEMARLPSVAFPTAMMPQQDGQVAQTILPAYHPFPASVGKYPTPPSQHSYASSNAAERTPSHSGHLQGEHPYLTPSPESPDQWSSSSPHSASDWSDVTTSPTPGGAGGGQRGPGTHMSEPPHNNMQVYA
T1 sequence (Q04721 with tags, fused parts or gaps DEL375-412): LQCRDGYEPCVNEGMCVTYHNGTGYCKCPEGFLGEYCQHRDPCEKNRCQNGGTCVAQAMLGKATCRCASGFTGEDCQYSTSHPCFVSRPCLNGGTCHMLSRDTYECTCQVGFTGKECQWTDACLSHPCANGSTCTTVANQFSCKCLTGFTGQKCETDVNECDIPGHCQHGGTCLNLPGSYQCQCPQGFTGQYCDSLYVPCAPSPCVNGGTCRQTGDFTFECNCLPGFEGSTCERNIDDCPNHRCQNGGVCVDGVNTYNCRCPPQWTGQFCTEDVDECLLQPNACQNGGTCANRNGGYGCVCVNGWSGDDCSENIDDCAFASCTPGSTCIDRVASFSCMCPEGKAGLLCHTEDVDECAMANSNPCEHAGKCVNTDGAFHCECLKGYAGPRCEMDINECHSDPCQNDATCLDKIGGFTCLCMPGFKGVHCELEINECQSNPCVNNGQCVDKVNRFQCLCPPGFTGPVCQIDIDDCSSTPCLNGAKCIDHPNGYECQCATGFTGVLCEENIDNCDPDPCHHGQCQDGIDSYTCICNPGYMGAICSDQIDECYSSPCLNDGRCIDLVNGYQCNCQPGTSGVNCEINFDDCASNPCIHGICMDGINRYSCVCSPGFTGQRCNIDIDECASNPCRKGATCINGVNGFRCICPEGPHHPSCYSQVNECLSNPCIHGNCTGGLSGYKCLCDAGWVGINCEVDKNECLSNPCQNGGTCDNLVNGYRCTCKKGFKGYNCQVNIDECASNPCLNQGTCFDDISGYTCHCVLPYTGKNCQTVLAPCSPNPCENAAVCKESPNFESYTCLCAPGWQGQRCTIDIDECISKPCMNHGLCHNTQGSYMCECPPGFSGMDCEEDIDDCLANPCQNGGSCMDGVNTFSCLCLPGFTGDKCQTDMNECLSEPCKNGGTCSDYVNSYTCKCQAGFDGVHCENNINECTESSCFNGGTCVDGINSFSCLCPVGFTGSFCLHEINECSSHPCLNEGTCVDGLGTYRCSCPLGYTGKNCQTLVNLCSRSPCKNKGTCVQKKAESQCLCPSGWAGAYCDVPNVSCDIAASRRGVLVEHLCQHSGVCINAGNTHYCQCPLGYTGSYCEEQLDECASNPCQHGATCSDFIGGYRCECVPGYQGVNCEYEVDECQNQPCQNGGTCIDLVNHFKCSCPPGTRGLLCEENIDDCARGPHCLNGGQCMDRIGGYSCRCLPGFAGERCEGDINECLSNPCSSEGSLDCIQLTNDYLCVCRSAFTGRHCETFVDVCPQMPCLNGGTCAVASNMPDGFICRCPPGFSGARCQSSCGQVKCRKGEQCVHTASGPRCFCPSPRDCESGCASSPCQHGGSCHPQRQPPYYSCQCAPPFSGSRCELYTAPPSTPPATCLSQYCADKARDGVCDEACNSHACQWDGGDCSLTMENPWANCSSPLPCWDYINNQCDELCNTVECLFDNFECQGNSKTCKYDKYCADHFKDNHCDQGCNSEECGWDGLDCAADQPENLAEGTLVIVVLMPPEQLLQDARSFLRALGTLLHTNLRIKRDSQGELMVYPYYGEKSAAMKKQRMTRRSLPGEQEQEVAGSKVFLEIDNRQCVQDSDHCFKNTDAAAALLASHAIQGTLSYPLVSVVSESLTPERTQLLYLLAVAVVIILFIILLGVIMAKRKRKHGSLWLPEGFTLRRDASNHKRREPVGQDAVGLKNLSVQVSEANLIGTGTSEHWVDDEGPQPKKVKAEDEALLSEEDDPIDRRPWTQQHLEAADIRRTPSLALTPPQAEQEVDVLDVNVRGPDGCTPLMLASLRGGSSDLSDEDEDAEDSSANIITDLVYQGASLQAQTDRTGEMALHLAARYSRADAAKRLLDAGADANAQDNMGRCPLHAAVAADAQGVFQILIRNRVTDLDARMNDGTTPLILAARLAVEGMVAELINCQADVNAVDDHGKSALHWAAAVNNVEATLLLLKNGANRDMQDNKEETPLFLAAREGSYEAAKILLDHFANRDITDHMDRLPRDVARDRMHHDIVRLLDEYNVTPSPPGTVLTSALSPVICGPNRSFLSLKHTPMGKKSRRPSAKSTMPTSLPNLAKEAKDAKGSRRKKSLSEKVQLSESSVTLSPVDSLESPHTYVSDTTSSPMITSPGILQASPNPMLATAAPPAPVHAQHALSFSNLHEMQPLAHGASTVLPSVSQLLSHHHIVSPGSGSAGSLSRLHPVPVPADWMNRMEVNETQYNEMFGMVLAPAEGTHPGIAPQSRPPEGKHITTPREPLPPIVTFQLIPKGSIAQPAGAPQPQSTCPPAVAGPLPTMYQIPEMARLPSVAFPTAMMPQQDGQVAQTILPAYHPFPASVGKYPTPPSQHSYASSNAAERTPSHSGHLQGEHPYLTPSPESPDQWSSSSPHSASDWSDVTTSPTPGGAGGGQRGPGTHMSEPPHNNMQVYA

**Q.** Which “T1 breast tumor growth” value ([1]; in the absence of estrogen treatment) does the source give for “59R1: human IgG2 antibody binding Notch2 and Notch3; heavy and light chain SEQ ID NO:16 and 18; ATCC PTA-9547” here?
**A.** ineffective

**Q.** And the “T1 breast tumor growth” value ([1]; in the presence of estrogen, 15 mg/kg once a week)?
**A.** effective at inhibiting tumor growth

**Q.** What about the “Fold 1416286_at (Rgs4)” value (stroma of B44 tumors) of the same substance?
**A.** −1.57

**Q.** And the “Fold 1417466_at (Rgs5)” value (stroma of B44 tumors)?
**A.** −2.22

**Q.** And the “Fold 1417714_x_at (Hba-al/Hba-a2)” value (stroma of B44 tumors)?
**A.** −2.56

**Q.** And the “Fold 1418829_a_at (Eno2)” value (stroma of B44 tumors)?
**A.** 1.71

**Q.** And the “Fold 1419302_at (Heyl)” value (stroma of B44 tumors)?
**A.** −1.12

**Q.** And the “Fold 1420872_at (Gucy1b3)” value (stroma of B44 tumors)?
**A.** −1.65

**Q.** What about the “Fold 1420941_at (Rgs5)” value (stroma of B44 tumors) of the same substance?
**A.** −2.09

**Q.** What about the “Fold 1420942_s_at (Rgs5)” value (stroma of B44 tumors) of the same substance?
**A.** −2.43

**Q.** What about the “Fold 1421964_at (Notch3)” value (stroma of B44 tumors) of the same substance?
**A.** −2.03

**Q.** And the “Fold 1422789_at (Aldh1a2)” value (stroma of B44 tumors)?
**A.** −4.92

**Q.** And the “Fold 1428361_x_at (Hba-al/Hba-a2)” value (stroma of B44 tumors)?
**A.** −2.42

**Q.** What about the “Fold 1434141_at (Gucy1a3)” value (stroma of B44 tumors) of the same substance?
**A.** −1.74

**Q.** And the “Fold 1449280_at (Esm1)” value (stroma of B44 tumors)?
**A.** 1.55

**Q.** And the “Fold 1449632_s_at (Fkbp10)” value (stroma of B44 tumors)?
**A.** −1.57

**Q.** And the “Fold 1451501_a_at (Ghr)” value (stroma of B44 tumors)?
**A.** −2.24

**Q.** And the “Fold 1452590_a_at (Plac9)” value (stroma of B44 tumors)?
**A.** −1.64

**Q.** And the “Fold 1459713_s_at (Tmem16a)” value (stroma of B44 tumors)?
**A.** −1.70

**Q.** What about the “M4 melanoma tumor growth” value (M4 melanoma tumor cells) of the same substance?
**A.** inhibited

**Q.** And the “FACS binding to hNotch2 in the absence of EGF 10 (missing amino acids 375-412)” value [2]?
**A.** does not

**Q.** And the “amino acids necessary for binding to hNotch 2” value [3]?
**A.** histidine 385, alanine 388, and leucine 389

**Q.** And the “B44 breast cancer growth relative to control antibody” value [4]?
**A.** inhibit breast cancer growth

**Q.** For “59R5: human antibody that specifically binds human Notch 2 and human Notch 3; heavy and light chain SEQ ID NO:49 and 18; ATCC PTA-10170”, which “ligand-induced activation of human Notch3 receptor signaling” value (human Notch3) is on record?
**A.** blocked
